In brackets after ≈: the same amount, converted by molar mass.
Test system: HeLa S3 cells
Experiment: Growth inhibitory effect on HeLa cells
Type: cell-based
Conditions: 96 h; for Cell count, average ± standard deviation: three runs, control 732 ± 24
Procedure: Growth inhibitory effect on HeLa cells
Cultured HeLa S3 cells are suspended in an MEM medium (containing 10% bovine fetus serum and 6 mg/100 ml kanamycin) at a concentration of 5×10^4 cells/ml, 1 ml each of the cell suspension is pipetted in 24-hole multi-dishes, and the cells are cultured in a carbon dioxide cultivator with 5% CO2 at 37° C. for 24 hours. Then, 0.1 ml each of drug solutions prepared at predetermined concentrations are added to each dish. Then, the cells are further cultured in the carbon dioxide cultivator for 96 hours. After the culturing, the culture liquor is removed from the dishes, and then 1 ml of PBS [physiological saline solution containing a phosphate buffer (pH 7.2)]is added to the dishes to gently wash the cell surfaces. Then, PBS is removed from the dishes. Then, 1 ml of PBS containing 0.05% trypsin and 0.02% EDTA is added to each dish. The dishes are left standing at room temperature for about 15 minutes. Adhered cells are peeled off, and 0.5 ml of the cell suspension is added to 10 ml of an isotonic solution. Cells are counted by a microcell counter to determine inhibition percent (%) against cell propagation of groups treated with the drug on the basis of the cell count of the control group. Linear expression showing a relationship between the concentration and the inhibition percent are obtained from the inhibition percent of the drug against the cell propagation at the respective concentration according to the least-squares method, and then the drug concentrations IC50 showing a 50% inhibition against the cell propagation are obtained from the linear expression.

IC50 (Homo sapiens, HeLa S3, 50% inhibition against cell propagation, linear least-squares): 5.73 µg/mL (≈ 37.2 µM)
SMILES: O=C1C=CC2COC(O)CC12 (stereo not drawn) [compound (I), 4-hydroxy-3-oxabicyclo [4.3.0]nona-8-en-7-on]
Cell count, average ± standard deviation (1 μg/ml): 697 ± 58 × 10^3 cells/ml | Cell count, average ± standard deviation (3 μg/ml): 784 ± 42 × 10^3 cells/ml | Cell count, average ± standard deviation (5 μg/ml): 454 ± 21 × 10^3 cells/ml | Cell count, average ± standard deviation (10 μg/ml): 7.1 ± 2.1 × 10^3 cells/ml | inhibition at 1 µg/mL (Homo sapiens, HeLa S3, 1 μg/ml, read-out: Inhibition percent against cell propagation): 4.8% | inhibition at 3 µg/mL (Homo sapiens, HeLa S3, 3 μg/ml, read-out: Inhibition percent against cell propagation): -7% | inhibition at 5 µg/mL (Homo sapiens, HeLa S3, 5 μg/ml, read-out: Inhibition percent against cell propagation): 38% | inhibition at 10 µg/mL (Homo sapiens, HeLa S3, 10 μg/ml, read-out: Inhibition percent against cell propagation): 99%
